Patent publication US12612407B2, “Imidazo[2,1-f][1,2,4]triazin-4-amine derivatives as TLR7 agonist” (BEIGENE, LTD., priority 2020, dated 2026)

Target: T1, human TLR7 (Homo sapiens, UniProt Q9NYK1)
T1 construct: host or cells: HEK293 (HEK-Blue hTLR7)
T1 sequence (Q9NYK1 27-1049): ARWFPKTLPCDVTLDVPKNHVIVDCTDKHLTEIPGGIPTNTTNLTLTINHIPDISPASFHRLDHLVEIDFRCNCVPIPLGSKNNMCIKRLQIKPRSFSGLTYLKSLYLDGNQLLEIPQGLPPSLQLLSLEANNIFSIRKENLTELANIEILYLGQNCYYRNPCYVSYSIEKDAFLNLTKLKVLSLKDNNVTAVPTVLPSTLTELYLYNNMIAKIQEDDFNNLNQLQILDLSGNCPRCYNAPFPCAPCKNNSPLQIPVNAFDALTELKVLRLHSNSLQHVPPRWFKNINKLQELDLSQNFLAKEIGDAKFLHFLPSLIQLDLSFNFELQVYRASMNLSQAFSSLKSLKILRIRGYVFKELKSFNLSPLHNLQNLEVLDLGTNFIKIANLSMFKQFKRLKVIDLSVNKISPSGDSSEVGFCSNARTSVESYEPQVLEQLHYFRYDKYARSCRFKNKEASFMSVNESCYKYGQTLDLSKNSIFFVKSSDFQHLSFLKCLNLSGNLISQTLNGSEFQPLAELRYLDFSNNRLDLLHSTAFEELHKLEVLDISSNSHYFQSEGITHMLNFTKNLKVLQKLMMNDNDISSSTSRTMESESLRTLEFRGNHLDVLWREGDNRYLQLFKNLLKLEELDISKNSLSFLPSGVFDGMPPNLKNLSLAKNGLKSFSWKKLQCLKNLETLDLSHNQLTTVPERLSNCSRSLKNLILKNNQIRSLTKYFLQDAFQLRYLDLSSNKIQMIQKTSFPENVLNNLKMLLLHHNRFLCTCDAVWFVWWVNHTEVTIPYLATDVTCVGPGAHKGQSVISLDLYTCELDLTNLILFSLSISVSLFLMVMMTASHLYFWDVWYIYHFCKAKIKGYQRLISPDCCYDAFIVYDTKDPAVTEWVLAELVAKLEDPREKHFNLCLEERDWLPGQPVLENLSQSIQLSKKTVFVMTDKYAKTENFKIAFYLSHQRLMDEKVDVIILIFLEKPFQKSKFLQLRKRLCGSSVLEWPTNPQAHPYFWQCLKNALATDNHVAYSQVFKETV
Experiment: HEK293-Blue hTLR7 Reporter Assay (QUANTI-BLUE, SEAP readout)
Assay type: cell-based
Details: HEK-Blue-hTLR7 cells, 24 hrs treatment, Table 1, B1-B232
How it was run: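 HEK-Blue-hTLR7 cells expressing NF-κB/AP-1-driven SEAP, 4×10^4 cells/well, treated 24 h at 37° C with increasing compound concentrations. Supernatant SEAP measured with Quanti-blue substrate (10-30 min, 37° C) at 620-655 nm; EC50 from sigmoidal dose-response fit.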

| Compound | EC50 |
| --- | --- |
| CCCOc1nc(N)c2ncc(Cc3cnc(N4CCNCC4)c(C)c3)n2n1 [Compound B93, 7-((5-methyl-6-(piperazin-1-yl)pyridin-3-yl)methyl)-2-propoxyimidazo[2,1-f][1,2,4]triazin-4-amine] | 641 nM |
| CCCCOc1nc(N)c2ncc(Cc3cnc(N4CCC(N5CCN(C)CC5)CC4)c(C)c3)n2n1 [Compound B130, 2-butoxy-7-((5-methyl-6-(4-(4-methylpiperazin-1-yl)piperidin-1-yl)pyridin-3-yl)methyl)imidazo[2,1-f][1,2,4]triazin-4-amine] | 38 nM |
| CCCCOc1nc(N)c2ncc(Cc3cnc(N4CCCC4)c(C)c3)n2n1 [Compound B51, 2-butoxy-7-((5-methyl-6-(pyrrolidin-1-yl)pyridin-3-yl)methyl)imidazo[2,1-f][1,2,4]triazin-4-amine] | > 10000 nM |
| CCCCOc1nc(N)c2ncc(Cc3cc(C)c(C4CCNCC4)cn3)n2n1 [Compound B47, 2-butoxy-7-((4-methyl-5-(piperidin-4-yl)pyridin-2-yl)methyl)imidazo[2,1-f][1,2,4]triazin-4-amine] | 462 nM |
| CCCCOc1nc(N)c2ncc(Cc3ccc(C4CCCNC4)cc3)n2n1 (centres unmarked) [Compound B20, 2-butoxy-7-(4-(piperidin-3-yl)benzyl)imidazo[2,1-f][1,2,4]triazin-4-amine] | 7990 nM |
| CCCC(CCO)Oc1nc(N)c2ncc(Cc3cnc(N4CCC(CNC)CC4)c(C)c3)n2n1 (centres unmarked) [Compound B229, 3-((4-amino-7-((5-methyl-6-(4-((methylamino)methyl)piperidin-1-yl)pyridin-3-yl)methyl)imidazo[2,1-f][1,2,4]triazin-2-yl)oxy)hexan-1-ol] | 14 nM |
| CCCCNc1nc(N)c2ncc(Cc3cnc(N4CCN(C(=O)CN(C)C)CC4)c(C)c3)n2n1 [Compound B71, 1-(4-(5-((4-amino-2-(butylamino)imidazo[2,1-f][1,2,4]triazin-7-yl)methyl)-3-methylpyridin-2-yl)piperazin-1-yl)-2-(dimethylamino)ethan-1-one] | 31 nM |
| COc1nc(N)c2ncc(Cc3cnc(N4CCNCC4)c(C)c3)n2n1 [Compound B62, 2-methoxy-7-((5-methyl-6-(piperazin-1-yl)pyridin-3-yl)methyl)imidazo[2,1-f][1,2,4]triazin-4-amine] | > 10000 nM |
| CCCCOc1nc(N)c2ncc(Cc3cnc(N4CCN(C(=O)CN)CC4)c(C)c3)n2n1 [Compound B24, 2-amino-1-(4-(5-((4-amino-2-butoxyimidazo[2,1-f][1,2,4]triazin-7-yl)methyl)-3-methylpyridin-2-yl)piperazin-1-yl)ethan-1-one] | 210 nM |
| CCCCOc1nc(N)c2ncc(Cc3ccc(C4CCNCC4)cn3)n2n1 [Compound B15, 2-butoxy-7-((5-(piperidin-4-yl)pyridin-2-yl)methyl)imidazo[2,1-f][1,2,4]triazin-4-amine] | 509 nM |
| CCC[C@@H](C)Oc1nc(N)c2ncc(Cc3cnc(N4CCC(CN(C)C)CC4)c(C)c3)n2n1 [Compound B128, (R)-7-((6-(4-((dimethylamino)methyl)piperidin-1-yl)-5-methylpyridin-3-yl)methyl)-2-(pentan-2-yloxy)imidazo[2,1-f][1,2,4]triazin-4-amine] | 41 nM |
